Assay results published in publication PMC8815882, “Screening the pandemic response box identified benzimidazole carbamates, Olorofim and ravuconazole as promising drug candidates for the treatment of eumycetoma” (PLoS Neglected Tropical Diseases, 2022).
Read-outs that look alike come from different tables or passages of the source.

What was measured:
Format in all cases: cell-based, Madurella mycetomatis
[1] = test system: M. mycetomatis genome strain MM55; assay: CLSI M38-A2 based in vitro susceptibility screening (XTT or resazurin), growth at fixed concentration; settings: for activity at 25 µM / activity at 100 µM / Percent fungal survival at 100 µM: Madurella mycetomatis; for Percent fungal survival at 100 µM: replicate 2, read-out: Percentage survival at 100um, 100 uM A (second replicate column)
M. mycetomatis MM55 = assay: IC50 determination, 2-fold dilution series 16 to 0.03125 μM; settings: for IC50 / IC90: Madurella mycetomatis
[2] = test system: ten different M. mycetomatis isolates; assay: MIC / MIC50 determination (XTT) in ten M. mycetomatis isolates; settings: no asterisk
[3] = 25 uM, mean of three replicates, read-out: Percentage survival at 25um, 25 uM mean
[4] = 25 uM, replicate A, read-out: Percentage survival at 25um, 25 um A
[5] = 25 uM, replicate B, read-out: Percentage survival at 25um, 25 uM B
[6] = 25 uM, replicate C, read-out: Percentage survival at 25um, 25 uM C
[7] = 100 uM, mean of three replicates, read-out: Percentage survival at 100um, 100 uM mean
[8] = 100 uM, replicate 1, read-out: Percentage survival at 100um, 100 uM A (first replicate column)
[9] = 100 uM, replicate 3, read-out: Percentage survival at 100um, 100 uM A (third replicate column)
[10] = MM55, mean of three replicates, read-out: IC50 mean
[11] = MM55, mean of three replicates, read-out: IC90 mean
[12] = MM55, replicate 1, read-out: IC50 1 um
[13] = MM55, replicate 1, read-out: IC90 1 um
[14] = MM55, replicate 2, read-out: IC50 2 um
[15] = MM55, replicate 2, read-out: IC90 2 um
[16] = MM55, replicate 3, read-out: IC50 3 um
[17] = MM55, replicate 3, read-out: IC90 3 um
[18] = 25 uM, mean, read-out: Percentage survival at 25um, 25 uM mean
[19] = 100 uM, mean, read-out: Percentage survival at 100um, 100 uM mean
[20] = 100 uM, replicate (first column), read-out: Percentage survival at 100um, 100 uM A
[21] = 100 uM, replicate (second column), read-out: Percentage survival at 100um, 100 uM A
[22] = 100 uM, replicate (third column), read-out: Percentage survival at 100um, 100 uM A
[23] = MM55, replicate 1, read-out: IC50 1
[24] = MM55, replicate 1, read-out: IC90 1
[25] = MM55, replicate 2, read-out: IC50 2
[26] = MM55, replicate 2, read-out: IC90 2
[27] = MM55, replicate 3, read-out: IC50 3
[28] = MM55, replicate 3, read-out: IC90 3

Row | IC50 (M. mycetomatis MM55; [10]) [µM] | IC90 (M. mycetomatis MM55; [11]) [µM] | IC50 (M. mycetomatis MM55; [12]) [µM] | IC90 (M. mycetomatis MM55; [13]) [µM] | IC50 (M. mycetomatis MM55; [14]) [µM] | IC90 (M. mycetomatis MM55; [15]) [µM] | IC50 (M. mycetomatis MM55; [16]) [µM] | IC90 (M. mycetomatis MM55; [17]) [µM] | Compound | activity at 25 µM [1, 3] [%] | activity at 25 µM [1, 4] [%] | activity at 25 µM [1, 5] [%] | activity at 25 µM [1, 6] [%] | activity at 100 µM [1, 7] [%] | activity at 100 µM [1, 8] [%] | Percent fungal survival at 100 µM ([1]; 100 uM) [%] | activity at 100 µM [1, 9] [%] | Drug static or cidal (M. mycetomatis MM55) | activity at 25 µM [1, 18] [%] | activity at 100 µM [1, 19] [%] | activity at 100 µM [1, 20] [%] | further results
1 | 11.8 | 22 | 14.2 | 22.3 | 9.8 | 22.7 | 11.2 | 21 | Cc1nc2ccc(Oc3ccccc3)cc2c2c1CCN2CCc1ccccc1 [MMV1634399] | 3.88 | -3.19 | -1.6 | 16.4 | 0.985 | 1.91 | -0.867 | 1.92 | Cidal | – | – | – | –
2 | 12.2 | 22.2 | 6.6 | 20 | 16.1 | 23.9 | 13.8 | 22.8 | N=C(N)NCCCCC(=O)Nc1cc(C(F)(F)F)cc(NC(=O)c2cc(C(=O)Nc3cc(C(F)(F)F)cc(NC(=O)CCCCNC(=N)N)c3O[C@@H]3CCNC3)ncn2)c1O[C@@H]1CCNC1 [MMV1634402] | 14 | 3.69 | 8.57 | 29.8 | 18.1 | 14.1 | 19.7 | 20.5 | Cidal | – | – | – | –
3 | – | – | – | – | – | – | – | – | Cc1ccc(Oc2ccccc2-c2csc(NC3=NCCCN3)n2)c(C)c1 [MMV1634493] | – | 34.1 | 1.37 | 4.64 | – | – | – | – | Static | 13.4 | 5.01 | 1.69 | activity at 100 µM [1, 21]: 6.56%; activity at 100 µM [1, 22]: 6.77%; IC50 (M. mycetomatis MM55; MM55, mean, read-out: IC50 mean): > 25 µM; IC90 (M. mycetomatis MM55; MM55, read-out: IC90 mean): > 25 µM; IC50 (M. mycetomatis MM55; [23]): > 25 µM; IC90 (M. mycetomatis MM55; [24]): > 25 µM; IC50 (M. mycetomatis MM55; [25]): > 25 µM; IC90 (M. mycetomatis MM55; [26]): > 25 µM; IC50 (M. mycetomatis MM55; [27]): > 25 µM; IC90 (M. mycetomatis MM55; [28]): > 25 µM
4 | – | – | – | – | – | – | – | – | O=[N+]([O-])/C(Br)=C/c1ccc(Br)o1 [MMV1645051] | – | 2.2 | -0.118 | 2.96 | – | – | – | – | Static | 1.68 | 7.68 | -0.809 | activity at 100 µM [1, 21]: 7.74%; activity at 100 µM [1, 22]: 16.1%; IC90 (M. mycetomatis MM55; MM55, read-out: IC90 mean): > 25 µM; IC50 (M. mycetomatis MM55; [23]): > 25 µM; IC90 (M. mycetomatis MM55; [24]): > 25 µM; IC50 (M. mycetomatis MM55; [25]): 23 µM; IC90 (M. mycetomatis MM55; [26]): > 25 µM; IC50 (M. mycetomatis MM55; [27]): > 25 µM; IC90 (M. mycetomatis MM55; [28]): > 25 µM
5 | – | – | – | – | – | – | – | – | Miconazole [MMV689401, reference compound] | – | – | – | – | – | – | – | – | – | – | – | – | Percentage survival at 25um, 25 uM B [1]: 77.7759%; Percentage survival at 25um, 25 uM C [1]: 51.747%; Percentage survival at 25um, 25 uM mean [1]: 64.2303%; Percentage survival at 25um, 25 um A ([1]; 25 uM, replicate A, M. mycetomatis MM55): 63.1681%; Percentage survival at 100um, 100 uM mean ([1]; 100 uM, mean of three, M. mycetomatis MM55): 51.5997%; Percentage survival at 100um, 100 uM A (first replicate column) ([1]; 100 uM, replicate 1, M. mycetomatis MM55): 60.4441%; Percentage survival at 100um, 100 uM A (second replicate column) ([1]; 100 uM, replicate 2, M. mycetomatis MM55): 58.6196%; Percentage survival at 100um, 100 uM A (third replicate column) ([1]; 100 uM, replicate 3, M. mycetomatis MM55): 35.7354%; MIC50 ([2]; median MIC over ten M. mycetomatis isolates, read-out: MIC50): 0.13 µM; MIC range ([2]; range of MIC over ten M. mycetomatis isolates): <0.03 to 0.25 µM
